In US20240246941A1, “SUBSTITUTED 4-(3-AMINOPROP-1-YL)AMINOQUINOLINE ANALOGS AS MODULATORS OF MELANOMA-ASSOCIATED ANTIGEN 11 UBIQUITIN LIGASE” (ST. JUDE CHILDREN'S RESEARCH HOSPITAL, INC., priority 2020, published 2024):

What follows are compounds tested against MAGE-A11:PCF11 (Homo sapiens (Human), UniProt P43364) (assay: TR-FRET single point screening at 15 μM). Conditions: single point TR-FRET screening at 15 μM against MAGE-A11:PCF11.
Type: binding
Set-up: unit not given here
Description: TR-FRET Assays and High-throughput Screen. Terbium-anti-GST antibody, 1 M Tris pH 7.5 1 M MgCl2 and 1 M DTT were purchased from Invitrogen (Carlsbad, CA), BSA was purchased from Sigma (St. Louis, MO). Dimethyl sulfoxide (DMSO) was purchased from Fisher Scientific (Pittsburgh, PA). Black 384-well low volume plates and 384-well polypropylene compound plates were purchased from Corning Incorporated (Tewksbury, MA). The St. Jude FDA drug and Bioactive library (11,293 chemicals), Drug-like library (10,073 chemicals) and Lead-like library (10,041 chemicals) were custom assembled and purchased from commercial sources including Sigma, Microsource (Gaylordsville, CT), selleckchem (Houston, TX), ChemDiv (San Diego, CA), ChemBridge (San Diego, CA), Enamine (Monmouth Jct., NJ), and Life Chemicals (Niagara-on-the-Lake, ON, Canada). They were arrayed (10 mM in DMSO) in 384-well polypropylene compound plates with columns 1, 2, 13 and 14 empty which were reserved for controls.
The TR-FRET assay buffer with a formula of 50 mM Tris pH 7.5, 20 mM MgCl2, 0.1 mg/ml BSA and 1 mM DTT was freshly prepared before each experiment. All TR-FRET assays were performed in black 384-well plates with 20 μl/well assay volume in the TR-FRET assay buffer at room temperature (approximately 25° C.). All peptides or compounds were solubilized in DMSO. To test the competitive activity of peptides or compounds against the interaction between GST-MAGEA11 MHD and FAM-PCF11_4 peptide, 10 μl/well peptide or compound at specified concentration was dispensed into a black 384-well low volume plate, followed by 5 μl/well FAM-PCF11_4 (800 nM), 5 μl/well Tb-anti-GST (20 nM) and GST-MAGEA11 MHD (20 nM). The assay components in each well was then mixed by shaking the plate on an IKA MTS 2/4 digital microtiter plate shaker (IKA Works; Wilmington, NC, USA) at 900 RPM for 1 minute. The plate was further centrifuged in an Eppendorf 5810 centrifuge with an A-4-62 swing-bucket rotor (Eppendorf AG, Hamburg, Germany) at 201 g (1000 rpm) for 30 seconds. The plate was then incubated for 90 min with a lid to avoid light exposure to the assay components. After incubation, the fluorescent emission signals at 520 nm and 490 nm channels of individual wells were measured with a PHERAstar FS plate reader (BMG Labtech; Durham, NC, USA) by using a 340 nm excitation filter, 100 μs delay time, and 200 μs integration time. The TR-FRET fluorescence emission ratio (TR-FRET signal) for each well was presented as 10 000×520 nm/490 nm, which was used directly for curve fitting, or further converted to % Inhibition based on the respective positive and negative controls. The graphic software GraphPad Prism 4.81 (GraphPad Software; La Jolla, CA, USA) was used to generate curves and derive IC50 values of tested peptides or compounds, if applicable.
TR-FRET screen for identifying MAGEA11 small molecule inhibitors was performed as follows. The primary one-concentration screening and subsequent 10 or 20-concentration dose response tests were accomplished with an automated High Throughput Screening system (HighRes Biosolutions, Beverly, MA)^30. In the primary screening, 15 μl/well FAM-PCF11_4 (267 nM) was first dispensed with a Multidrop Combi Reagent Dispenser (Thermo Fisher Scientific, Waltham, MA) to black 384-well low volume assay plates. The plates were spun down with a Velocity11 VSpin microplate centrifuge (Agilent Technologies, Santa Clara, CA). 30 nl/well of 10 mM compound/DMSO solutions, or DMSO alone, were transferred from compound plates (the St. Jude FDA drug and bioactive library, Drug-like library and Lead-like library) or a control plate to the assay plates with a Pin Tool (V&P Scientific, San Diego, CA). The compounds were arrayed in columns 3 to 12 and columns 15 to 24 of compound plates. The controls were arrayed in columns 1, 2, 13 and 14 of a compound plate. […]

Chain of MAGE-A11:PCF11 (P43364 218-429): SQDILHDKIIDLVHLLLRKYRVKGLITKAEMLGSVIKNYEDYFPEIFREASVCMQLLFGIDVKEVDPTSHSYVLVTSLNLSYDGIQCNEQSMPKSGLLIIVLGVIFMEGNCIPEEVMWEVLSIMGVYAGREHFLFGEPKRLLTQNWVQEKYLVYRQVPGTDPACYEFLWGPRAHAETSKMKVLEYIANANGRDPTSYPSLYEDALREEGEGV

Structure (SMILES)	TR-FRET signal
COc1ccccc1N1CCN(c2c(S(=O)(=O)c3ccc(C)cc3)cnc3ccc(Cl)cc23)CC1 [SJ000117067]	−12.86
COc1ccccc1N1CCN(c2c(S(=O)(=O)c3ccc(C)c(C)c3)cnc3ccccc23)CC1 [SJ000117068]	−5.706
CCc1ccc(S(=O)(=O)c2cnc3ccccc3c2N2CCN(c3ccccc3OC)CC2)cc1 [SJ000117069]	−47.44
COc1ccccc1N1CCN(c2c(S(=O)(=O)c3ccc(Cl)cc3)cnc3ccc(C)cc23)CC1 [SJ000117070]	−15.37
COc1ccc(N2CCN(c3c(S(=O)(=O)c4ccccc4)cnc4ccc(OC)cc34)CC2)cc1 [SJ000117071]	−32.67
COc1ccc(N2CCN(c3c(S(=O)(=O)c4ccc(C)cc4)cnc4ccc(Cl)cc34)CC2)cc1 [SJ000117072]	−5.838
COc1ccc(N2CCN(c3c(S(=O)(=O)c4ccc(C)c(C)c4)cnc4ccc(F)cc34)CC2)cc1 [SJ000117073]	−13.26
CCc1ccc(S(=O)(=O)c2cnc3ccccc3c2N2CCN(c3ccc(OC)cc3)CC2)cc1 [SJ000117074]	−11.2
COc1ccc(N2CCN(c3c(S(=O)(=O)c4ccc(Cl)cc4)cnc4ccc(C)cc34)CC2)cc1 [SJ000117075]	−3.122
COc1ccc2ncc(S(=O)(=O)c3ccc(C)cc3)c(N3CCN(c4ccccc4F)CC3)c2c1 [SJ000117076]	6.02
CCOc1ccc2ncc(S(=O)(=O)c3ccc(C)cc3)c(N3CCN(c4ccccc4F)CC3)c2c1 [SJ000117077]	5.159
COc1ccc2ncc(S(=O)(=O)c3ccc(C)c(C)c3)c(N3CCN(c4ccccc4F)CC3)c2c1 [SJ000117078]	−8.289
CCc1ccc(S(=O)(=O)c2cnc3ccccc3c2N2CCN(c3ccccc3F)CC2)cc1 [SJ000117079]	−56.58
Cc1ccc(S(=O)(=O)c2cnc3ccccc3c2N2CCN(c3ccc(C)cc3C)CC2)cc1 [SJ000117080]	3.172
Cc1cccc(N2CCN(c3c(S(=O)(=O)c4ccccc4)cnc4ccccc34)CC2)c1C [SJ000117081]	−13.13
COc1ccc2ncc(S(=O)(=O)c3ccccc3)c(N3CCN(c4cccc(C)c4C)CC3)c2c1 [SJ000117082]	−241.8
Cc1ccc(C)c(N2CCN(c3c(S(=O)(=O)c4ccccc4)cnc4ccc(F)cc34)CC2)c1 [SJ000117083]	−15.38
Cc1ccc(S(=O)(=O)c2cnc3ccccc3c2N2CCN(c3cc(C)ccc3C)CC2)cc1 [SJ000117084]	2.443
COc1ccc2ncc(S(=O)(=O)c3ccc(C)cc3)c(N3CCN(Cc4ccccc4)CC3)c2c1 [SJ000117085]	−82.22
CCc1ccc(S(=O)(=O)c2cnc3ccccc3c2N2CCN(Cc3ccccc3)CC2)cc1 [SJ000117086]	−55.26
CCOC(=O)c1cnc2ccc(C(=O)OC)cc2c1NCCN1CCOCC1 [SJ000127079]	−7.813
CCOC(=O)c1cnc2c(C)cc(Cl)cc2c1NCCN1CCOCC1 [SJ000129560]	4.96
CCOC(=O)c1cnc2c(C)c(C)ccc2c1NCCN(C)C [SJ000134078]	8.538
CCOC(=O)c1cnc2c(Cl)cccc2c1NCCN1CCOCC1 [SJ000163436]	−6.529

Structure (SMILES)	TR-FRET signal
CCOC(=O)c1cnc2c(C)cc(C)cc2c1NCCN1CCOCC1 [SJ000172983]	8.869
CCOC(=O)c1cnc2c(Cl)cc(Cl)cc2c1NCCN1CCOCC1 [SJ000175864]	−13.06
CCOC(=O)c1cnc2c(C(=O)OC)cccc2c1NCCN1CCOCC1 [SJ000184799]	4.043
CCOC(=O)c1cnc2ccc(Cl)cc2c1N1CCN(C)CC1 [SJ000187322]	−0.9277
Cc1ccc(S(=O)(=O)N2CCN(c3ccnc4cc(Cl)ccc34)CC2)cc1 [SJ000192519]	−38.7
CC(=O)Nc1ccc(S(=O)(=O)N2CCN(c3ccnc4cc(Cl)ccc34)CC2)cc1 [SJ000193862]	−16.19
COc1ccc(S(=O)(=O)N2CCN(c3ccnc4cc(Cl)ccc34)CC2)cc1 [SJ000199955]	−32.07
O=S(=O)(c1ccc(Br)cc1)N1CCN(c2ccnc3cc(Cl)ccc23)CC1 [SJ000201754]	−16.75
O=S(=O)(c1ccc(F)cc1)N1CCN(c2ccnc3cc(Cl)ccc23)CC1 [SJ000203833]	−50.64
O=S(=O)(c1ccc(Cl)cc1)N1CCN(c2ccnc3cc(Cl)ccc23)CC1 [SJ000204656]	−34.39
C=CCOCC(O)CN1CCN(c2cc(C)nc3ccccc23)CC1 (stereo not drawn) [SJ000227652]	−0.207
Cc1cc(N2CCN(CC(O)CO)CC2)c2ccccc2n1 (stereo not drawn) [SJ000227653]	−4.954
Cc1cc(N2CCN(CC(O)COCC(C)C)CC2)c2ccccc2n1 (stereo not drawn) [SJ000227654]	−3.251
C#CCOCC(O)CN1CCN(c2cc(C)nc3ccccc23)CC1 (stereo not drawn) [SJ000227655]	6.55
C=CCOCC(O)CN1CCN(c2cc(C(F)(F)F)nc3ccccc23)CC1 (stereo not drawn) [SJ000228017]	−2.128
C#CCOCC(O)CN1CCN(c2cc(C(F)(F)F)nc3ccccc23)CC1 (stereo not drawn) [SJ000228018]	−9.516
O=S(=O)(c1ccccc1)c1cnc2ccc(Cl)cc2c1N1CCN(Cc2ccccc2)CC1 [SJ000247242]	−30.28
CCOc1ccc2ncc(C(=O)c3ccc(OC)cc3)c(N3CCN(CC)CC3)c2c1 [SJ000247243]	−9.084
COc1ccc2ncc(C(=O)c3ccccc3)c(N3CCN(C)CC3)c2c1 [SJ000247245]	−2.393
COc1ccc2ncc(S(=O)(=O)c3ccccc3)c(N3CCN(Cc4ccccc4)CC3)c2c1 [SJ000247248]	−71.16
CCOc1ccc2ncc(S(=O)(=O)c3ccccc3)c(N3CCN(Cc4ccccc4)CC3)c2c1 [SJ000247249]	−15.91
CCOc1ccc2ncc(C(=O)c3ccc(C)cc3)c(N3CCN(C)CC3)c2c1 [SJ000247254]	−10.61
Cc1ccc2ncc(S(=O)(=O)c3ccccc3)c(N3CCN(Cc4ccccc4)CC3)c2c1 [SJ000247256]	2.673

Same assay, conditions: single point TR-FRET screening of quinoline compounds against MAGE-A11:PCF11; 15 μM

Structure (SMILES)	TR-FRET signal
CCOC(=O)c1cnc2ccc(OC)cc2c1NCCCN1CCOCC1 [SJ000127046]	2.945
CCOC(=O)c1cnc2c(C)c(Cl)ccc2c1NCCCN1CCOCC1 [SJ000129912]	−23.26
CCOC(=O)c1cnc2c(C(F)(F)F)cccc2c1NCCCN1CCOCC1 [SJ000131358]	10.06
CCOC(=O)c1cnc2c(C)cc(C)cc2c1NCCCN1CCOCC1 [SJ000173725]	6.494
CCOC(=O)c1cnc2c(C)cc(Cl)cc2c1NCCCN1CCOCC1 [SJ000174094]	−10.52
CCOC(=O)c1cnc2c(Cl)cc(Cl)cc2c1NCCCN1CCOCC1 [SJ000176476]	−2.118
CCOC(=O)c1cnc2ccc(Br)cc2c1NCCCN1CCOCC1 [SJ000176507]	−22
CCOC(=O)c1ccc2ncc(C(=O)OCC)c(NCCCN3CCOCC3)c2c1 [SJ000176583]	11.26
CCOC(=O)c1cnc2c(OC)cccc2c1NCCCN1CCOCC1 [SJ000180455]	3.635
CCOC(=O)c1cnc2c(CC)cccc2c1NCCCN1CCOCC1 [SJ000185196]	−4.499
